Experiments:
[1] = molecular target: T1, human HRH4 (Homo sapiens, UniProt Q9H3N8); test: Histamine H4 receptor binding test ([3H]-Histamine radioligand binding); conditions: membrane fraction of CHO-K1 expressing human HRH4; [3H]-Histamine 15 nM; Ki by Cheng-Prusoff
T1 construct: purchased PerkinElmer
Method: Membrane fraction of CHO-K1 stably expressing human HRH4 was purchased from PerkinElmer. Radioligand binding assay was performed in 96 well polypropylene assay plates in a total assay volume of 150 μL. Membrane suspension (15 μg of protein) was mixed with [3H]-Histamine (PerkinElmer) at 15 nM and compounds at various concentration in 50 mM Tris-HCl pH7.4, 5 mM EDTA buffer. Assays were incubated for 60 min at room temperature, then the reactions were terminated by rapid filtration over 96-well GF/B filter plates (PerkinElmer) presoaked in 0.5% polyethyleneimine. Unbound radioactivity was eliminated by six times of wash with 350 μL of ice-cold 50 mM Tris pH7.4 buffer. When the filter plates were dried, Microscint-MS liquid scintillation fluid (PerkinElmer) was added to each well and retained radioactivity plates were counted in a Topcount liquid scintillation counter (PerkinElmer). Specific binding was calculated by subtracting non-specific binding determined in the presence of 100 μM unlabeled histamine from total count.
The resulting data were analyzed for IC50 using the non-linear regression on XLfit.
Affinity values (Ki) were then determined by Cheng-Prusoff equation.

[2] = molecular target: T2, hERG (IKr) (Homo sapiens, UniProt Q12809); test: hERG test (whole cell patch clamp, IKr); format: cell-based; conditions: HEK293 cells expressing hERG channel, pH 7.4, at 1 μmol/L, read-out: % inhibition of IKr (hERG tail peak current)
T2 construct: expressed in transfected cells; host or cells: HEK293
T2 sequence (Q12809 whole entry): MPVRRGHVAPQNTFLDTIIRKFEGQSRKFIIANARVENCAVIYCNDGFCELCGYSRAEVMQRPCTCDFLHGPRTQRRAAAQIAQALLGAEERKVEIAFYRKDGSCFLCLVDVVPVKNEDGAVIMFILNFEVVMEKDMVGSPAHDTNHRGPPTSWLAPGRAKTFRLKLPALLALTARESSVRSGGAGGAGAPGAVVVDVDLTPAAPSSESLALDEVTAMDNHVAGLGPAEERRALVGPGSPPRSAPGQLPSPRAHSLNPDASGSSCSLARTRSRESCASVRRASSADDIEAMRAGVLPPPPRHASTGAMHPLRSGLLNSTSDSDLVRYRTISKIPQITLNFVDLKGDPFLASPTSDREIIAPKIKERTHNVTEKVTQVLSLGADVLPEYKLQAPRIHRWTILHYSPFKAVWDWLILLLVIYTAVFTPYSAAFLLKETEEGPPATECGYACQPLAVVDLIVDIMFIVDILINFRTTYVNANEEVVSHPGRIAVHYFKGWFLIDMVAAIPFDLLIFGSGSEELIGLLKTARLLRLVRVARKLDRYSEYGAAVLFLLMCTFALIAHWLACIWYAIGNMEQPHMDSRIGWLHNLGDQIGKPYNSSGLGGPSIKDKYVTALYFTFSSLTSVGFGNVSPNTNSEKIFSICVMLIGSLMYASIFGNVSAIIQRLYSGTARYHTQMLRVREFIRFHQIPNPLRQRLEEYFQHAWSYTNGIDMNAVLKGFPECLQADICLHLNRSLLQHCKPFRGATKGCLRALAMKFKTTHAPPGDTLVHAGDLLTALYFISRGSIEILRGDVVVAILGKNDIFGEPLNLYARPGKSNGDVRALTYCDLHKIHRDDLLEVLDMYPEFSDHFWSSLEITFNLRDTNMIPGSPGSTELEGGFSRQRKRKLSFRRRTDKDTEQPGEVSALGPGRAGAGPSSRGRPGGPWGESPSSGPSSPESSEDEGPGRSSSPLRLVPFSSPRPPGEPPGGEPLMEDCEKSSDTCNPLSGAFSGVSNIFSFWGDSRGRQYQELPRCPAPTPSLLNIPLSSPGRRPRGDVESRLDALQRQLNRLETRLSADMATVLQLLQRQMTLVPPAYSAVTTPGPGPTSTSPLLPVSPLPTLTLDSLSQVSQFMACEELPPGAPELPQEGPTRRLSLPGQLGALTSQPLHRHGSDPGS
From the text: For the purpose of assessing risk of an electrocardiogram QT interval prolongation, effects on delayed rectifier K^+ current (IKr), which plays an important role in the ventricular repolarization process, was studied using HEK293 cells expressing human ether-a-go-go related gene (hERG) channel. After a cell was retained at a membrane potential of −80 mV by whole cell patch clamp method using an automated patch clamp system (PatchXpress 7000A, Axon Instruments Inc.), IKr induced by depolarization pulse stimulation at +50 mV for 2 seconds and, further, repolarization pulse stimulation at −50 mV for 2 seconds was recorded. […] From the recording IKr, an absolute value of the tail peak current was measured based on the current value at the resting membrane potential using an analysis software (DataXpress ver.1, Molecular Devices Corporation). Further, the % inhibition relative to the tail peak current before application of the test substance was calculated, and compared with the vehicle-applied group (0.1% dimethyl sulfoxide solution) to assess influence of the test substance on IKr.

[3] = molecular target: T3, CYP1A2 (Homo sapiens, UniProt P05177); test: CYP inhibition test (pooled human hepatic microsome); format: in vitro ADME; conditions: 7-ethoxyresorufin O-deethylation
T3 construct: enzyme, pooled human hepatic microsome 0.2 mg protein/mL; from tissue
T3 sequence (P05177 1-516): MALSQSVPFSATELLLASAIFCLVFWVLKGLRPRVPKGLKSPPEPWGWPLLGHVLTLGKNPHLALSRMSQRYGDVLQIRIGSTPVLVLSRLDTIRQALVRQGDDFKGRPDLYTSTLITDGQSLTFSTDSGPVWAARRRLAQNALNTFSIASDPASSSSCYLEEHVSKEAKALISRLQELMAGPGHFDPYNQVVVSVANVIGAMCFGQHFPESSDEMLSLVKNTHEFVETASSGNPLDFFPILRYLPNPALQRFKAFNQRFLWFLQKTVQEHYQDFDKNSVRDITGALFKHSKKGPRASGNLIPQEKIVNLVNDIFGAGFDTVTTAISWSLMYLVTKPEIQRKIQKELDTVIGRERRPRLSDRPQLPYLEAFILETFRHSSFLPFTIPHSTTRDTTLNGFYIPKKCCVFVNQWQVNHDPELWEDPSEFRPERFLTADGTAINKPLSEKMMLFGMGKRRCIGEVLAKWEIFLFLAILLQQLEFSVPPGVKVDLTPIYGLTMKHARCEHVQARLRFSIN
Method: (§1) Using commercially available pooled human hepatic microsome, and employing, as markers, 7-ethoxyresorufin O-deethylation (CYP1A2), tolbutamide methylhydroxylation (CYP2C9), mephenyloin 4′-hydroxylation (CYP2C19), dextromethorphan O-demethylation (CYP2D6), and terfenedine hydroxylation as typical substrate metabolism reactions of human main five CYP enzyme forms (CYP1A2, 2C9, 2C19, 2D6, 3A4), an inhibitory degree of each metabolite production amount by a test compound was assessed. The reaction conditions were as follows: substrate, 0.5 μmol/L ethoxyresorufin (CYP1A2), 100 μmol/L tolbutamide (CYP2C9), 50 μmol/L S-mephenitoin (CYP2C19), 5 μmol/L dextromethorphan (CYP2D6), 1 μmol/L terfenedine (CYP3A4); reaction time, 15 minutes; reaction temperature, 37° C.; enzyme, pooled human hepatic microsome 0.2 mg protein/mL; test drug concentration, 1, 5, 10, 20 μmol/L (four points). Each five kinds of substrates, human hepatic microsome, or a test drug in 50 mM Hepes buffer as a reaction solution was added to a 96-well plate at the composition as described above, NADPH, as a cofactor was added to initiate metabolism reactions as markers and, after the incubation at 37° C. for 15 minutes, a methanol/acetonitrile=1/1 (v/v) solution was added to stop the reaction. After the centrifugation at 3000 rpm for 15 minutes, resorufin (CYP1A2 metabolite) in the supernatant was quantified by a fluorescent multilabel counter and tributamide hydroxide (CYP2CP metabolite), mephenyloin 4′ hydroxide (CYP2C19 metabolite), […] (CYP2D6 metabolite), and terfenadine alcohol (CYP3A4 metabolite) were quantified by LC/MS/MS. Addition of only DMSO being a solvent dissolving a drug to a reaction system was adopted as a control (100%), remaining activity (%) was calculated at each concentration of a test drug added as the solution and IC50 was calculated by reverse presumption by a logistic model using a concentration and an inhibition rate.

[4] = molecular target: T4, CYP2C19 (Homo sapiens, UniProt P33261); test: as above; format: in vitro ADME; conditions: mephenyloin 4′-hydroxylation
T4 construct: enzyme, pooled human hepatic microsome 0.2 mg protein/mL; from tissue
T4 sequence (P33261 whole entry): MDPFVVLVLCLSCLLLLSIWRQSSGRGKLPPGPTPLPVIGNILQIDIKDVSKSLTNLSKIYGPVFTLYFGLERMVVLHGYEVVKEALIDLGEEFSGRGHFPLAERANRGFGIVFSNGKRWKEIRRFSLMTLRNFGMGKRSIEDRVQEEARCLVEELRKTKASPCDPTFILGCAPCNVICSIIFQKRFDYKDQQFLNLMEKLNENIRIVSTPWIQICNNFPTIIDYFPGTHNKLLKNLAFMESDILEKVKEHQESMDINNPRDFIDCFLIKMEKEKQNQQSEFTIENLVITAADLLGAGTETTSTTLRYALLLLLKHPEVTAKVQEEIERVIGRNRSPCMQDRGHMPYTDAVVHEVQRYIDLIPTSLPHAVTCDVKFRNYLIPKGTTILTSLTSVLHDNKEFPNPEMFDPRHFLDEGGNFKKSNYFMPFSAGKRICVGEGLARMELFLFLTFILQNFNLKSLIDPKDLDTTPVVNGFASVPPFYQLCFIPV
Method: as §1

[5] = molecular target: T5, CYP2C9 (Homo sapiens, UniProt P11712); test: as above; format: in vitro ADME; conditions: tolbutamide methylhydroxylation
T5 construct: enzyme, pooled human hepatic microsome 0.2 mg protein/mL; from tissue
T5 sequence (P11712 whole entry): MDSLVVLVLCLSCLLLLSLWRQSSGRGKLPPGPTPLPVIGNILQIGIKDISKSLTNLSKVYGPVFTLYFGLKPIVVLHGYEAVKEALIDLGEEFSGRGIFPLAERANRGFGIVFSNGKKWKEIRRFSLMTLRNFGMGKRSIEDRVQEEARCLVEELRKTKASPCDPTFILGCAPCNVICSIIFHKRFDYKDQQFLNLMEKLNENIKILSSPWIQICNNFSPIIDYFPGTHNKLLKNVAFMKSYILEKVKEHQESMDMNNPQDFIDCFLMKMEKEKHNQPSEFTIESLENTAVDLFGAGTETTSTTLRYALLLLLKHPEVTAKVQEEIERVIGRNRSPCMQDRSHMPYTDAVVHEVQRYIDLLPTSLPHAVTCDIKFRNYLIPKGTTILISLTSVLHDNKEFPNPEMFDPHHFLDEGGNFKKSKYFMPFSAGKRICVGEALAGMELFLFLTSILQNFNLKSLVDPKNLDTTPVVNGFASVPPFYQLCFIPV
Method: as §1

[6] = molecular target: T6, CYP2D6 (Homo sapiens, UniProt P10635); test: as above; format: in vitro ADME; conditions: dextromethorphan O-demethylation
T6 construct: enzyme, pooled human hepatic microsome 0.2 mg protein/mL; from tissue
T6 sequence (P10635 whole entry): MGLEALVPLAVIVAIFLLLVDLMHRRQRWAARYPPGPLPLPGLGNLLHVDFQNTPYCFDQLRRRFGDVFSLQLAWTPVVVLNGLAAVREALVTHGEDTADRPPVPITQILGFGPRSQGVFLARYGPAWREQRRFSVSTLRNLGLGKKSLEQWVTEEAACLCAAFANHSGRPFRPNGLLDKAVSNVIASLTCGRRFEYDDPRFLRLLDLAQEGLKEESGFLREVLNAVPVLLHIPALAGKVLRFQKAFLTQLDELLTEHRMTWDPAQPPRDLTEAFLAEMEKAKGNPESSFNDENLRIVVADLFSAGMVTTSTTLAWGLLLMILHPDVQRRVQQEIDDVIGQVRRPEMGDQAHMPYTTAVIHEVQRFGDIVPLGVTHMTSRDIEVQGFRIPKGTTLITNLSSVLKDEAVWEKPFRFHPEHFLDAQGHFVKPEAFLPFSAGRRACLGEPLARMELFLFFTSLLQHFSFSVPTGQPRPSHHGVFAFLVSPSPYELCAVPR
Method: as §1

[7] = Solubility test (artificial intestinal juice pH 6.8, 1% DMSO); format: physicochemical; conditions: artificial intestinal juice pH 6.8 with 1% DMSO, fassgf or other biorelevant, kinetic from dmso stock, 25° C.
Method: The solubility of a compound is determined under a condition in which 1% DMSO is added. 10 mM compound solution is prepared using DMSO, and then 6 μL of the compound solution is added to 594 μL of artificial intestinal juice in pH 6.8 (to 250 mL of 0.2 mol/L potassium dihydrogen phosphate reagent solution is added 118 mL of 0.2 mol/L NaOH reagent solution and water to provide a final volume of 1000 mL). After standing at 25° C. for 16 hours, the mixed solution is filtrated with suction. The filtrate is diluted twice with methanol/water (1/1), and then a concentration in the filtration is measured with HPLC or LC/MS/MS by the absolute calibration method.

[8] = molecular target: T7, CYP3A4 (Homo sapiens, UniProt P08684); test: CYP3A4 fluorescent MBI test; format: in vitro ADME; set-up: host or cells: Escherichia coli; conditions: prereaction 0 or 30 minutes; substrate 7-BFC; CYP3A4 expressed in Escherichia coli
T7 sequence (P08684 whole entry): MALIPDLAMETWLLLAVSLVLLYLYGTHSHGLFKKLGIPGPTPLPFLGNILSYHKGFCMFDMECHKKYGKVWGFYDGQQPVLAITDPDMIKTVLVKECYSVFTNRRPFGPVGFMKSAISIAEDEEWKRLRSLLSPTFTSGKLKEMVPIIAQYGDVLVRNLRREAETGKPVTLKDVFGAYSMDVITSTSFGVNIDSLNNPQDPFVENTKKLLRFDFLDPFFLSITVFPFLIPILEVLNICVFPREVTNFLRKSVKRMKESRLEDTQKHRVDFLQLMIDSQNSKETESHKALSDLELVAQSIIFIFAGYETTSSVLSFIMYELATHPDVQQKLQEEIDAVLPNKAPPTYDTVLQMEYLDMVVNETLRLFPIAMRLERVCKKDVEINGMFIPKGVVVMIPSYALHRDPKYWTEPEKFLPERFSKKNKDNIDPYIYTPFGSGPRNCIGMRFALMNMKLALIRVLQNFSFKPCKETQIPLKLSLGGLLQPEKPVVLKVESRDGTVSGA
Method: The CYP3A4 fluorescent MBI test is a test of investigating enhancement of CYP3A4 inhibition of a compound by a metabolism reaction, and the test was performed using, as CYP3A4 enzyme expressed in Escherichia coli and employing, as an index, a reaction in which 7-benzyloxytrifluoromethylchmarin (BFC) is debenzylated by the CYP3A4 enzyme to produce a metabolite, 7-hydroxytrifluoromethylchmarin (HFC) emitting fluorescent light.
The reaction conditions were as follows: substrate, 5.6 μmol/L 7-BFC; prereaction time, 0 or 30 minutes; reaction time, 15 minutes; reaction temperature, 25° C. […]
An enzyme in a K-Pi buffer (pH 7.4) and a test drug solution as a pre-reaction solution were added to a 96-well plate at the composition of the pre-reaction, a part of it was transferred to another 96-well plate so that it was 1/10 diluted by a substrate in a K-Pi buffer, NADPH as a co-factor was added to initiate a reaction as an index (without preincubation) and, after a predetermined time of a reaction, acetonitrile/0.5 mol/L Tris(trishydroxyaminomethane)=4/1 was added to stop the reaction. […] For the plate on which each index reaction had been performed, a fluorescent value of 7-HFC which is a metabolite was measured with a fluorescent plate reader. […]

[9] = molecular target: T7, CYP3A4; test: CYP inhibition test (pooled human hepatic microsome); format: in vitro ADME; set-up: enzyme, pooled human hepatic microsome 0.2 mg protein/mL; from tissue; conditions: terfenedine hydroxylation
Method: Using commercially available pooled human hepatic microsome, and employing, as markers, 7-ethoxyresorufin O-deethylation (CYP1A2), tolbutamide methylhydroxylation (CYP2C9), mephenyloin 4′-hydroxylation (CYP2C19), dextromethorphan O-demethylation (CYP2D6), and terfenedine hydroxylation as typical substrate metabolism reactions of human main five CYP enzyme forms (CYP1A2, 2C9, 2C19, 2D6, 3A4), an inhibitory degree of each metabolite production amount by a test compound was assessed. […] After the centrifugation at 3000 rpm for 15 minutes, resorufin (CYP1A2 metabolite) in the supernatant was quantified by a fluorescent multilabel counter and tributamide hydroxide (CYP2CP metabolite), mephenyloin 4′ hydroxide (CYP2C19 metabolite), […], and terfenadine alcohol (CYP3A4 metabolite) were quantified by LC/MS/MS. Addition of only DMSO being a solvent dissolving a drug to a reaction system was adopted as a control (100%), remaining activity (%) was calculated at each concentration of a test drug added as the solution and IC50 was calculated by reverse presumption by a logistic model using a concentration and an inhibition rate.

[10] = Bioavailability (BA) test and total body clearance test; format: in vivo; conditions: plasma; rat; oral 1 mg/kg dosage
Method: (1) Animal: mice or rats (2) Breeding conditions: mice and rats are allowed to freely take solid feed and sterilized tap water (3) Dose and grouping: orally or intravenously administered at a predetermined dose; grouping is as follows (Dose depends on the compound)
Oral administration: 1 to 30 mg/kg (n=2 to 3)
Intravenous administration: 0.5 to 10 mg/kg (n=2 to 3)
(4) Preparation of dosing solution: for oral administration, in a solution or a suspension state; for intravenous administration, in a solubilized state (5) Administration method: in oral administration, forcedly administer into ventriculus with oral probe; in intravenous administration, administer from caudal vein with a needle-equipped syringe (6) Evaluation items: blood is collected over time, and the plasma concentration of drug is measured by LC/MS/MS (7) Statistical analysis: regarding the transition of the plasma concentration, the area under the plasma concentration-time curve (AUC) and total body clearance (Clt) are calculated by non-linear least squares program WinNonlin (Registered trademark), and the bioavailability (BA) is calculated from the AUCs of the oral administration group and intravenous administration group
The following values show the rat BA of the compounds on oral 1 mg/kg dosage.

T1 sequence (Q9H3N8 whole entry): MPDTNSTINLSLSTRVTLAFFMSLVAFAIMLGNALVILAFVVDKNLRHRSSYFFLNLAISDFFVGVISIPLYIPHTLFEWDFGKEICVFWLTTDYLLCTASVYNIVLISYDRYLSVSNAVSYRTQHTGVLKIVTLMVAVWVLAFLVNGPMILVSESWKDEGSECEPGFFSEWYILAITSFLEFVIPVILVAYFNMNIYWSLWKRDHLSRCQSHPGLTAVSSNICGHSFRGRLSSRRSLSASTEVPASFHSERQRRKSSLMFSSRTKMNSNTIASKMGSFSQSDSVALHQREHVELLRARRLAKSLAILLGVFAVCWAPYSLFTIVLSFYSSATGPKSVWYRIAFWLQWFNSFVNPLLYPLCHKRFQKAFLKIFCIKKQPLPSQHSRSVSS

Compound | Ki [1] [µM] | inhibition at 10 min, 1 μmol/L [2] [%] | IC50 [3] [µM] | IC50 [4] [µM] | IC50 [5] [µM] | IC50 [6] [µM] | solubility at 16 h [7] [µM] | CYP3A4 MBI: difference between IC50 values [8] | IC50 [9] [µM] | bioavailability [10] [%]
CN1CCN(C(=O)c2cc3c([nH]2)C(CO)CCC3)CC1 (stereo not shown) [Compound I-043] | 0.27 | 0 |  |  |  |  |  |  |  | 
CN1CCN(C(=O)c2cc3c([nH]2)CCC(F)(F)C3)CC1 [Compound I-050] | 0.063 |  | > 20 | > 20 | > 20 | > 20 | > 50 | (−) (when the difference is 3 μM or less, this was defined as (−)) | > 20 | 
CN1CCN(C(=O)c2cc3c([nH]2)CCC(C#N)C3)CC1 (stereo not shown) [Compound I-035] | 0.15 | 0 |  |  |  |  |  |  |  | 31
